The NIST ThermoML archive (doi:10.1016/j.tca.2004.07.014)

Legend:
[1] = 303.15 K, 101.3 kPa, Liquid; for speed of sound: Linear variable-path acoustic interferometer
[2] = xn = mol fraction of the nth substance listed; conditions: 303.15 K, 101.3 kPa, Liquid; for speed of sound: Linear variable-path acoustic interferometer

CCOC(=O)CC(=O)OCC [diethyl 1,3-propanedioate]
[1]
Conditions	mass density [kg/m3]	speed of sound [m/s]
–	1043.23	1274

Conditions	viscosity [mPa·s]
[1], Capillary tube (Ostwald / Ubbelohde) method	1.721

CCOC(=O)CC(=O)OCC [diethyl 1,3-propanedioate] + ClC(Cl)(Cl)Cl
[2]
Conditions	mass density [kg/m3]	speed of sound [m/s]	viscosity [mPa·s]
x1 = 0.1173	1480.36	949	0.857
x1 = 0.2031	1419.02	982	0.877
x1 = 0.2999	1356.61	1018	0.918
x1 = 0.4623	1265.6	1080	1.002
x1 = 0.5648	1215.59	1120	1.084
x1 = 0.6579	1174.08	1154	1.167
x1 = 0.7478	1136.91	1185	1.272
x1 = 0.8311	1104.69	1216	1.388
x1 = 0.9189	1072.19	1247	1.544
x1 = 1	1043.23	1274	1.721

CCOC(=O)CC(=O)OCC [diethyl 1,3-propanedioate] + ClC(Cl)Cl
[2]
Conditions	mass density [kg/m3]	speed of sound [m/s]	viscosity [mPa·s]
x1 = 0.0968	1399.36	999	0.533
x1 = 0.2004	1334.53	1031	0.568
x1 = 0.3089	1276.4	1065	0.622
x1 = 0.4122	1228.62	1097	0.692
x1 = 0.5385	1178.25	1136	0.808
x1 = 0.6125	1151.99	1159	0.891
x1 = 0.7225	1116.7	1192	1.05
x1 = 0.8156	1089.85	1220	1.226
x1 = 0.9071	1065.78	1246	1.444

CCOC(=O)C(Br)C(=O)OCC [diethyl bromomalonate]
[1]
Conditions	mass density [kg/m3]	speed of sound [m/s]
–	1399.18	1166

Conditions	viscosity [mPa·s]
[1], Capillary tube (Ostwald / Ubbelohde) method	3.614

CCOC(=O)C(Br)C(=O)OCC [diethyl bromomalonate] + ClC(Cl)(Cl)Cl
[2]
Conditions	mass density [kg/m3]	speed of sound [m/s]	viscosity [mPa·s]
x1 = 0.1001	1552.35	944	1.012
x1 = 0.1992	1531.61	980	1.207
x1 = 0.3007	1512.21	1012	1.433
x1 = 0.4088	1492.99	1047	1.705
x1 = 0.4988	1478.09	1072	1.948
x1 = 0.5999	1462.1	1098	2.255
x1 = 0.699	1446.77	1121	2.571
x1 = 0.8988	1415.72	1155	3.25
x1 = 1	1399.18	1166	3.614

CCOC(=O)C(Br)C(=O)OCC [diethyl bromomalonate] + ClC(Cl)Cl
[2]
Conditions	mass density [kg/m3]	speed of sound [m/s]	viscosity [mPa·s]
x1 = 0.098	1460.41	989	0.709
x1 = 0.1971	1450.47	1010	0.941
x1 = 0.296	1441.28	1032	1.2
x1 = 0.4033	1432.36	1054	1.507
x1 = 0.5045	1424.91	1075	1.84
x1 = 0.5919	1419.12	1092	2.141
x1 = 0.6911	1413.32	1112	2.501
x1 = 0.7991	1407.82	1131	2.899
x1 = 0.8997	1403.21	1149	3.253

CCOC(=O)CCl [ethyl chloroethanoate]
[1]
Conditions	mass density [kg/m3]	speed of sound [m/s]	viscosity [mPa·s]
–	1139.18	1227	1.275

CCOC(=O)CCl [ethyl chloroethanoate] + ClC(Cl)(Cl)Cl
[2]
Conditions	mass density [kg/m3]	speed of sound [m/s]	viscosity [mPa·s]
x1 = 0.095	1530.01	933	0.853
x1 = 0.1992	1481.59	964	0.862
x1 = 0.298	1436.61	994	0.862
x1 = 0.3972	1392.26	1025	0.87
x1 = 0.5	1347.02	1058	0.891
x1 = 0.5978	1304.82	1089	0.928
x1 = 0.6984	1262.23	1123	0.967
x1 = 0.8044	1218.14	1158	1.021
x1 = 0.8978	1180.11	1191	1.113
x1 = 1	1139.18	1227	1.275

CCOC(=O)CCl [ethyl chloroethanoate] + ClC(Cl)Cl
[2]
Conditions	mass density [kg/m3]	speed of sound [m/s]	viscosity [mPa·s]
x1 = 0.0989	1429.89	990	0.617
x1 = 0.1945	1392.15	1014	0.687
x1 = 0.2954	1354.22	1038	0.759
x1 = 0.3905	1320.14	1062	0.806
x1 = 0.5048	1281.24	1091	0.852
x1 = 0.6012	1250.32	1115	0.9
x1 = 0.6875	1223.93	1137	0.943
x1 = 0.7658	1201.01	1159	0.989
x1 = 0.8992	1164.5	1198	1.114

ClC(Cl)(Cl)Cl [tetrachloromethane]
[1]
Conditions	mass density [kg/m3]	speed of sound [m/s]	viscosity [mPa·s]
–	1574.82	905	0.844

ClC(Cl)(Cl)Cl [tetrachloromethane] + CCOC(=O)CCl
[2], x2 = 0
Conditions	mass density [kg/m3]	speed of sound [m/s]	viscosity [mPa·s]
–	1574.82	905	0.844

ClC(Cl)Cl [trichloromethane]
[1]
Conditions	mass density [kg/m3]	speed of sound [m/s]
–	1470.59	967

Conditions	viscosity [mPa·s]
[1], Capillary tube (Ostwald / Ubbelohde) method	0.512

ClC(Cl)Cl [trichloromethane] + CCOC(=O)CCl
[2], x2 = 0
Conditions	mass density [kg/m3]	speed of sound [m/s]	viscosity [mPa·s]
–	1470.59	967	0.512
